{"source": "patent US12060360B2", "about": "“Lysyl oxidase inhibitors” (The Institute of Cancer Research: Royal Cancer Hospital, priority 2017, dated 2024)", "data": [{"target": "T1, LOX (Mus musculus, UniProt P28301)", "T1 construct": "Full length LOX cDNA was then PCR cloned into pEGFP-N1 (Clonetech), or biosensor vector proGFP2-N1; expressed in transfected cells; host or cells: MDCK cells grown as cysts on Matrigel, G418-selected", "T1 sequence (P28301 163-411)": "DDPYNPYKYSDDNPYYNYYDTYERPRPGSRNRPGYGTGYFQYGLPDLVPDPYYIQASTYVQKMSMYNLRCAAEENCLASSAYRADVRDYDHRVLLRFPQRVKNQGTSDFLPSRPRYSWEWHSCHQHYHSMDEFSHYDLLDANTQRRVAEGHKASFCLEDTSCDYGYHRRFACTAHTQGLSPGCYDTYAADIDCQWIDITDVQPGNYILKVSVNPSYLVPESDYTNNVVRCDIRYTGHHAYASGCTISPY", "assay": "LOX activity in cysts assay (LOX-roGFP2 biosensor, MDCK cysts)", "type": "cell-based", "settings": "2.5 uM (stated in cell); MDCK cysts; DMSO = 0%, BAPN 1 mM = 100% inhibition; read-out: LOX biosensor inhibition (cyst) @ 2.5 uM", "protocol": "(§1) LOX Activity in Cysts Assay (Tang et al, 2017).\n(§2) All cell lines used in this study were purchased from American Type Culture Collection (ATCC). Mycoplasma contamination was routinely monitored by PCR. Cells used were not found to be Mycoplasma positive. MDCK cell lines were cultured in Dulbecco's Modified Eagle Medium (DMEM) supplemented with 10% fetal bovine serum (FBS) and 1% Penicillin Streptomycin solution (Pen Strep). For GFP constructs transfection in MDCK cells, lipofectamine 3000 was used according to manufactures protocols. Cells were either selected with G418 (Life Technologies) at 5 mg/ml. All cell culture reagents were purchased from Life Technologies.\n(§3) To produce MDCK cysts, cells were cultured on Matrigel (Corning) with 2% Matrigel supplemented in DMEM with 10% FBS. Cysts were allowed to form for 10 days before subsequent studies.\n(§4) Mouse LOX cDNA was purchased from OriGene. Full length LOX cDNA was then PCR cloned into pEGFP-N1 (Clonetech), or biosensor vector proGFP2-N1 (Hanson, 2004) using the following primers, […] (forward primer) and […] (reverse primer). For the insertion into pEGFP-N1 or proGFP2-N1, NheI and XhoI restriction sites were added to forward and reverse primers accordingly. Mutant LOX constructs were made using QuickChange II site-directed mutagenesis kit (Agilent Technologies) following manufacture's protocol using LOX-GFP as template. To generate, roGFP2 versions of LOX mutant constructs, LOX mutant cDNA was transferred from pEGFP-N1 to proGFP2-N1 using NheI and XhoI.\n(§5) All photomicrographs were taken with a Leica TCS SP8 X confocal system. For LOX biosensor imaging, live MDCK cysts were used. The oxidised biosensor was excited using a 405 nm laser, while the reduced biosensor was excited with a 488 nm laser. Emission of the biosensor was recorded at 500 nm˜530 nm range using sequential scans. Ratio images were generated following a published protocol {Kardash, 2011 #376}. Note, while the published protocol generates YFP/CFP ratio images, we used it to generate Oxidised/Reduced (roGFP2 ratio) ratio images. The roGFP2 ratio at the basal surface of MDCK cysts was used to indicate LOX inhibition. LOX inhibitors were added 30 min prior to imaging.\n(§6) For clarity, readout for DMSO treated cysts represents 0% inhibition (no inhibition) and readout for BAPN at 1 mM is used as 100% inhibition (full inhibition).", "units": {"inhibition at 2.5 µM": "%"}, "values": [{"smiles": "C#CCCCN1C[C@@H]2CN(c3ccc(OCC)cc3)[C@H](C1)C(C)(C)C2", "note": "[Example 44, (1R,5S)-6-(4-ethoxyphenyl)-9,9-dimethyl-3-(pent-4-yn-1-yl)-3,6-diazabicyclo[3.2.2]nonane]", "inhibition at 2.5 µM": 66}, {"smiles": "CCNC(=O)N1C[C@@H]2CN(c3ccc(F)cc3)[C@H](C1)C(C)(C)C2", "note": "[Example 2, (1 S,5S)—N-ethyl-6-(4-fluorophenyl)-9,9-dimethyl-3,6-diazabicyclo[3.2.2]nonane-3-carboxamide]", "inhibition at 2.5 µM": 92}]}, {"target": "T1, LOX", "assay": "LOX activity in cysts assay (LOX-roGFP2 biosensor, MDCK cysts)", "type": "cell-based", "settings": "10 uM; MDCK cysts; inhibitor added 30 min prior to imaging; DMSO = 0%, BAPN 1 mM = 100% inhibition; read-out: LOX biosensor inhibition (cyst) @ 10 uM", "protocol": "as §1, §2, §3, §4, §5, §6", "units": {"inhibition at 10 µM": "%"}, "values": [{"smiles": "CCOc1ccc(N2C[C@H]3CN(C(=O)c4ccccn4)C[C@@H]2C(C)(C)C3)cc1", "note": "[Example 51, ((1S,5S)-6-(4-ethoxyphenyl)-9,9-dimethyl-3,6-diazabicyclo[3.2.2]nonan-3-yl)(pyridin-2-yl)methanone]", "inhibition at 10 µM": 75}, {"smiles": "CCOc1ccc(N2C[C@@H]3CC(C)(C)[C@H]2CCN3C(=O)NCCO)cc1", "note": "[Example 20, (1S,5R)-6-(4-ethoxyphenyl)-N-(2-hydroxyethyl)-9,9-dimethyl-2,6-diazabicyclo[3.2.2]nonane-2-carboxamide]", "inhibition at 10 µM": 79}, {"smiles": "CCOc1ccc(N2C[C@H]3CN(C(=O)N(CCO)CCO)C[C@@H]2C(C)(C)C3)cc1", "note": "[Example 14, (1S,5S)-6-(4-ethoxyphenyl)-N,N-bis(2-hydroxyethyl)-9,9-dimethyl-3,6-diazabicyclo[3.2.2]nonane-3-carboxamide]", "inhibition at 10 µM": 75}, {"smiles": "CCOc1ccc(N2C[C@H]3CN(CC4(CC#N)CC4)C[C@@H]2C(C)(C)C3)cc1", "note": "[Example 43, 2-(1-(((1R,5S)-6-(4-ethoxyphenyl)-9,9-dimethyl-3,6-diazabicyclo[3.2.2]nonan-3-yl)methyl)cyclopropyl)acetonitrile]", "inhibition at 10 µM": 59}, {"smiles": "CCOc1ccc(N2C[C@H]3CN(S(=O)(=O)N4CCOCC4)C[C@@H]2C(C)(C)C3)cc1", "note": "[Example 57, 4-(((1S,5S)-6-(4-ethoxyphenyl)-9,9-dimethyl-3,6-diazabicyclo[3.2.2]nonan-3-yl)sulfonyl)morpholine]", "inhibition at 10 µM": 93}, {"smiles": "CCOc1ccc(N2C[C@H]3CN(C(=O)Nc4ccc(OC)cc4)C[C@@H]2C(C)(C)C3)cc1", "note": "[Example 1, (1S,5S)-6-(4-ethoxyphenyl)-N-(4-methoxyphenyl)-9,9-dimethyl-3,6-diazabicyclo[3.2.2]nonane-3-carboxamide]", "inhibition at 10 µM": 91}, {"smiles": "CCOc1ccc(N2C[C@H]3CN(C(=O)CNC(=N)CN)C[C@@H]2C(C)(C)C3)cc1", "note": "[Example 53, 2-amino-N-(2-((1S,5S)-6-(4-ethoxyphenyl)-9,9-dimethyl-3,6-diazabicyclo[3.2.2]nonan-3-yl)-2-oxoethyl)acetimidamide]", "inhibition at 10 µM": 100}, {"smiles": "CCOc1ccc(N2C[C@H]3CN(C(=O)N4CCC(N5CCCC5)CC4)C[C@@H]2C(C)(C)C3)cc1", "note": "[Example 18, ((1S,5S)-6-(4-ethoxyphenyl)-9,9-dimethyl-3,6-diazabicyclo[3.2.2]nonan-3-yl)(4-(pyrrolidin-1-yl)piperidin-1-yl)methanone]", "inhibition at 10 µM": 84}, {"smiles": "CCOc1ccc(N2C[C@H]3CN(CC(O)CC#N)C[C@@H]2C(C)(C)C3)cc1", "note": "(stereo partly drawn) [Example 46, 4-((1R,5S)-6-(4-Ethoxyphenyl)-9,9-dimethyl-3,6-diazabicyclo[3.2.2]nonan-3-yl)-3-hydroxybutanenitrile]", "inhibition at 10 µM": 72}, {"smiles": "C#CCN1C[C@@H]2CN(c3ccc(OCC)cc3)[C@H](C1)C(C)(C)C2", "note": "[Example 41, (1R,5S)-6-(4-ethoxyphenyl)-9,9-dimethyl-3-(prop-2-yn-1-yl)-3,6-diazabicyclo[3.2.2]nonane]", "inhibition at 10 µM": 87}, {"smiles": "CC1(C)C[C@@H]2CN(C(=O)N3CCS(=O)(=O)CC3)C[C@H]1N(c1cccc(N3CCS(=O)(=O)CC3)c1)C2", "note": "[Example 64, (1,1-dioxidothiomorpholino)((1S,5S)-6-(3-(1,1-dioxidothiomorpholino)phenyl)-9,9-dimethyl-3,6-diazabicyclo[3.2.2]nonan-3-yl)methanone]", "inhibition at 10 µM": 100}]}, {"target": "T1, LOX", "assay": "LOX activity in cysts assay (LOX-roGFP2 biosensor, MDCK cysts)", "type": "cell-based", "settings": "MDCK cysts, roGFP2 ratio at basal surface; read-out: LOX biosensor IC50 (cyst)", "protocol": "as §1, §2, §3, §4, §5, §6", "units": {"IC50": "nM"}, "values": [{"smiles": "C#CCCCN1C[C@@H]2CN(c3ccc(OCC)cc3)[C@H](C1)C(C)(C)C2", "note": "[Example 44, (1R,5S)-6-(4-ethoxyphenyl)-9,9-dimethyl-3-(pent-4-yn-1-yl)-3,6-diazabicyclo[3.2.2]nonane]", "IC50": 310}]}]}
